In assay [1] the target is T1, aldose reductase (Bos taurus, UniProt P16116).
T1 construct: partially purified aldose reductose enzyme obtained from calf lens; from tissue; host or cells: calf lens
Nature of the assay: inhibition of aldose reductase enzyme activity (procedure of S. Hayman et al., modified by K. Sestanj et al.). The class given is biochemical, calf. The settings on record: for inhibition at 100 µM: 10^-4 M; for inhibition at 100 µM / inhibition at 10 µM / inhibition at 1 µM / inhibition at 0.1 µM: calf lens enzyme, read-out: Percent inhibition of aldose reductase enzyme activity; for inhibition at 10 µM: 10^-5 M; for inhibition at 1 µM: 10^-6 M; for inhibition at 0.1 µM: 10^-7 M; for aldose reductase inhibitory activity (in words): qualitative statement. As for the experimental part:
(§1) The activity of the compounds of the present invention, as agents for the control of chronic diabetic complications, is determined by their ability to successfully pass one or more of the following standard biological and/or pharmacological tests, viz., (1) measuring their ability to inhibit the enzyme activity of isolated aldose reductase; (2) measuring their ability to reduce or inhibit sorbitol accumulation in the sciatic nerve of acutely sterptozotocinized (i.e., diabetic) rats; (3) measuring their ability to reverse already-elevated sorbitol levels in the sciatic nerve and lens of chronic streptozotocin-induced diabetic rats; (4) measuring their ability to prevent or inhibit galactitol formation in the lens of acutely galactosemic rats, and (5) measuring their ability to delay cataract formation and reduce the severity of lens opacities in chronic galactosemic rats.
Hayman et al., as described in the Journal of Biological Chemistry, Vol. 240, p. […] In every case, the substrate employed ws partially purified aldose reductose enzyme obtained from calf lens.

For assay [2], the system named is sorbitol accumulation in the sciatic nerve of streptozotocinized (i.e., diabetic) rats. Nature of the assay: inhibition of sorbitol accumulation in the sciatic nerve of acutely streptozotocinized (diabetic) rats. The class given is in vivo, rat. Particulars: measured at 27 h, vs untreated. On the procedure:
as §1
The following spiro-hydantoin compounds of Preparation C and Examples I-V, VII-IX, XI-XVII, XIX-XXV, XXVII and XXX-XXXIII, respectively, were tested for their ability to reduce or inhibit sorbitol accumulation in the sciatic nerve of streptozotocinized (i.e., diabetic) rats by the procedure essentially described in U.S. Pat. No. 3,821,383. In the present study, the amount of sorbitol accumulation in the sciatic nerves was measured 27 hours after induction of diabetes. The compounds were administered orally at the dose levels indicated at 4, 8 nd 24 hours following the administration of streptozotocin. The results obtained in this manner are presented below in terms of percent inhibition (%) afforded by the test compound as compared to the case where no compound was administered (i.e., the untreated animal where sorbitol levels normally rise from approximately […]. tissue to as high as […]. tissue in the 27-hour test period): […]

Assay [3] concerns sorbitol levels in the sciatic nerve and lens of diabetic subjects. Nature of the assay: lowering of sorbitol levels in sciatic nerve (peripheral nerves) and lens of diabetic subjects (summary statement). The class given is in vivo. Particulars: qualitative statement.
Assay [4] has as its system galactitol levels in the lens of galactosemic subjects. Nature of the assay: lowering of galactitol levels in the lens of galactosemic subjects (summary statement). Particulars: qualitative statement. In kind it is in vivo.
[5] abbreviates: 1.5 mg./kg. orally at 4, 8 and 24 h after streptozotocin.
Setting [6] is: 5.0 mg./kg. orally at 4, 8 and 24 h after streptozotocin.
[7] abbreviates: 10 mg./kg. orally at 4, 8 and 24 h after streptozotocin.
Setting [8] is: 0.75 mg./kg. orally at 4, 8 and 24 h after streptozotocin.

As for `O=C1NC(=O)C2(CCc3ccccc32)N1` (stereo not drawn) [Ex. I, spiro-[imidazolidine-4,1'-indan]-2,5-dione], in assay [1], the inhibition (in general, the relative decrease from the control value, in per cent) at 100 µM was 73%; the inhibition at 10 µM stood at 39%; the inhibition at 1 µM amounted to 18%; the inhibition at 0.1 µM was -11%. In addition, the “aldose reductase inhibitory activity (in words)” value in assay [1] is recorded as “highly potent”. Further, the “Percent inhibition of sorbitol accumulation in the sciatic nerve” value (“Percent inhibition” for short) in assay [2] (setting [5]) stood at 29%. Further, the “Percent inhibition” value in assay [2] (setting [6]) is 52%. The “Percent inhibition” value in assay [2] (setting [7]) is recorded as 67%. In addition, the “lowering of sorbitol levels in sciatic nerve (peripheral nerves) and lens (in words)” value (from here on “lowering of sorbitol levels”) in assay [3] is recorded as “extremely effective”. Further, the “lowering of galactitol levels in the lens (in words)” value (from here on “lowering of galactitol levels”) in assay [4] is given as “extremely effective”.
For the compound `O=C1NC(=O)C2(CCOc3cc(Cl)c(Cl)cc32)N1` (stereo not drawn) [Ex. XXIII, 6,7-dichloro-spiro-[chroman-4,4'-imidazolidine]-2',5'-dione], in assay [1], the inhibition at 100 µM was found to be 59%, the inhibition at 10 µM was 96%, the inhibition at 1 µM was 91% and the inhibition at 0.1 µM worked out at 84%. In assay [1], the “aldose reductase inhibitory activity (in words)” value was “highly potent”. The “Percent inhibition” value in assay [2] (setting [5]) came out at 64%. Besides, in assay [3], the “lowering of sorbitol levels” value is on record as “extremely effective”. Moreover, the “lowering of galactitol levels” value in assay [4] is “extremely effective”.
Take `O=C1NC(=O)C2(CCSc3cc(Cl)c(Cl)cc32)N1` (stereo not drawn) [Ex. XI, 6',7'-dichloro-spiro-[imidazolidine-4,4'-thiochroman]-2,5-dione]: in assay [1], the inhibition at 100 µM was determined as 67%, the inhibition at 10 µM was found to be 84%, the inhibition at 1 µM came to 76% and the inhibition at 0.1 µM was determined as 69%. Besides, the “aldose reductase inhibitory activity (in words)” value in assay [1] is “highly potent”. The “Percent inhibition” value in assay [2] (setting [6]) stood at 59%. Besides, the “lowering of sorbitol levels” value in assay [3] was “extremely effective”. Moreover, the “lowering of galactitol levels” value in assay [4] is given as “extremely effective”.
As for `O=C1NC(=O)C2(CCCc3ccccc32)N1` (stereo not drawn) [Prep. C, 3',4'-Dihydro-spiro-[imidazolidine-4,1'(2'H)-naphthalene]-2,5-dione, reference compound], in assay [1], the inhibition at 100 µM was 72%, the inhibition at 10 µM came to 34%, the inhibition at 1 µM was found to be 13% and the inhibition at 0.1 µM is 7%. In addition, the “Percent inhibition” value in assay [2] (setting [6]) is reported as 3%. Besides, in assay [2] (setting [7]), the “Percent inhibition” value is 40%.
Regarding `O=C1NC(=O)C2(CCOc3c(Cl)cccc32)N1` (stereo not drawn) [Ex. XXVII, 8-chloro-spiro-[chroman-4,4'-imidazolidine]-2',5'-dione], in assay [1], the inhibition at 100 µM is 87%, the inhibition at 10 µM came to 85%, the inhibition at 1 µM worked out at 52% and the inhibition at 0.1 µM worked out at 6%. The “Percent inhibition” value in assay [2] (setting [5]) is 30%.
In the case of `COc1ccc2c(c1)C1(CC2)NC(=O)NC1=O` (stereo not drawn) [Ex. II, 6'-methoxy-spiro-[imidazolidine-4,1'-indan]-2,5-dione], in assay [1], the inhibition at 100 µM amounted to 97%, the inhibition at 10 µM stood at 61%, the inhibition at 1 µM came to 17% and the inhibition at 0.1 µM came out at 1%. The “Percent inhibition” value in assay [2] (setting [6]) is 6%. For the same compound, the “Percent inhibition” value in assay [2] (setting [7]) amounted to 54%.
With `COc1ccc2c(c1)C1(CCS2)NC(=O)NC1=O` (stereo not drawn) [Ex. VIII, 6'-methoxy-spiro-[imidazolidine-4,4'-thiochroman]-2,5-dione], in assay [1], the inhibition at 100 µM came out at 76%, the inhibition at 10 µM was 60%, the inhibition at 1 µM amounted to 18% and the inhibition at 0.1 µM turned out to be 7%. Further, the “Percent inhibition” value in assay [2] (setting [6]) was determined as 26%.
As to `O=C1NC(=O)C2(CCSc3ccccc32)N1` (stereo not drawn) [Ex. VII, spiro-[imidazolidine-4,4'-thiochroman]-2,5-dione], in assay [1], the inhibition at 100 µM came to 92%, the inhibition at 10 µM stood at 64%, the inhibition at 1 µM was 10% and the inhibition at 0.1 µM was -5%. Besides, the “Percent inhibition” value in assay [2] (setting [6]) came out at 39%. The “Percent inhibition” value in assay [2] (setting [7]) was found to be 65%.
As for `O=C1NC(=O)C2(CCOc3ccc(Cl)cc32)N1` (stereo not drawn) [Ex. XXV, 6-chloro-spiro-[chroman-4,4'-imidazolidine]-2',5'-dione], in assay [1], the inhibition at 100 µM was found to be 73%, the inhibition at 10 µM was 81%, the inhibition at 1 µM came to 77% and the inhibition at 0.1 µM turned out to be 64%. Besides, in assay [1], the “aldose reductase inhibitory activity (in words)” value is given as “highly potent”. In addition, in assay [2] (setting [8]), the “Percent inhibition” value was 64%. Further, the “Percent inhibition” value in assay [2] (setting [5]) is on record as 84%. Further, the “lowering of sorbitol levels” value in assay [3] is recorded as “extremely effective”. In addition, in assay [4], the “lowering of galactitol levels” value is listed as “extremely effective”.
In the case of `O=C1NC(=O)C2(CCOc3c(Cl)cc(Cl)cc32)N1` (stereo not drawn) [Ex. XXIV, 6,8-dichloro-spiro-[chroman-4,4'-imidazolidine]-2',5'-dione], in assay [1], the inhibition at 100 µM is 85%, the inhibition at 10 µM was 90%, the inhibition at 1 µM came to 78% and the inhibition at 0.1 µM is 81%. Moreover, the “aldose reductase inhibitory activity (in words)” value in assay [1] is given as “highly potent”. The “Percent inhibition” value in assay [2] (setting [8]) is 82%. Also, in assay [3], the “lowering of sorbitol levels” value was “extremely effective”. The “lowering of galactitol levels” value in assay [4] is on record as “extremely effective”.
`O=C1NC(=O)C2(CCSc3ccc(Cl)cc32)N1` (stereo not drawn) [Ex. IX, 6'-chloro-spiro-[imidazolidine-4,4'-thiochroman]-2,5-dione]: in assay [1], the inhibition at 100 µM came out at 79%, the inhibition at 10 µM turned out to be 87%, the inhibition at 1 µM was 71% and the inhibition at 0.1 µM came to 30%. In addition, the “Percent inhibition” value in assay [2] (2.5 mg./kg. orally at 4, 8 and 24 h after streptozotocin) came out at 58%.
As to `O=C1NC(=O)C2(CCSc3cc(Cl)ccc32)N1` (stereo not drawn) [Ex. XIV, 7'-chloro-spiro-[imidazolidine-4,4'-thiochroman]-2,5-dione], the inhibition at 100 µM in assay [1] is 70%. Further, the “Percent inhibition” value in assay [2] (setting [5]) is on record as 26%.

For the origin of these results see US4117230A, “Hydantoin derivatives as therapeutic agents” (priority 1977, dated 1978).
